{"source": "paper PMC11738990", "about": "“A small-molecule TNIK inhibitor targets fibrosis in preclinical and clinical models” (Nature Biotechnology, 2024)", "test_system": "A549 cells", "settings": "for E-Cadherin/GAPDH normalized: DMSO=1; for N-Cadherin/GAPDH normalized / Smad2/3/GAPDH normalized / p- Smad2/3/GAPDH normalized / b-catenin/ HDAC2 normalized / b-catenin/ Histone 3 normalized / b-catenin/ tubulin normalized: TGF-β=1; for P65/GAPDH normalized / p-P65/GAPDH normalized: TGF-β+TNF-a=1", "key": {"[1]": {"settings": "0.1 μM, TGF-β+TNF-a group, Batch 1"}, "[2]": {"settings": "0.1 μM, TGF-β+TNF-a group, Batch 2"}, "[3]": {"settings": "0.1 μM, TGF-β+TNF-a group, Batch 3"}, "[4]": {"settings": "0.3 μM, TGF-β+TNF-a group, Batch 1"}, "[5]": {"settings": "0.3 μM, TGF-β+TNF-a group, Batch 2"}, "[6]": {"settings": "0.3 μM, TGF-β+TNF-a group, Batch 3"}}, "note": "Read-outs that look alike come from different tables or passages of the source.", "data": [{"smiles": "CC(C)n1cnc(-c2ccc(F)cc2)c1-c1nc(C(=O)Nc2ccc(N3CCN(C)CC3)cc2)c[nH]1", "note": "[INS018_055, 2-[4-(4-fluorophenyl)-1-(prop-2-yl)imidazol-5-yl]-N-[4-(4-methylhexahydropyrazin-1-yl)phenyl]-1H-imidazole-4-carboxamide]", "values": [{"measurement": "E-Cadherin/GAPDH normalized", "setting": "0.1 μM, Batch 1", "value": 0.882}, {"measurement": "N-Cadherin/GAPDH normalized", "setting": "0.1 μM, Batch 1", "value": 0.7004}, {"measurement": "Smad2/3/GAPDH normalized", "setting": "0.1 μM, Batch 1", "value": 1.169}, {"measurement": "p- Smad2/3/GAPDH normalized", "setting": "0.1 μM, Batch 1", "value": 0.1198}, {"measurement": "E-Cadherin/GAPDH normalized", "setting": "0.1 μM, Batch 2", "value": 0.7553}, {"measurement": "N-Cadherin/GAPDH normalized", "setting": "0.1 μM, Batch 2", "value": 0.5859}, {"measurement": "Smad2/3/GAPDH normalized", "setting": "0.1 μM, Batch 2", "value": 1.386}, {"measurement": "b-catenin/ HDAC2 normalized", "setting": "0.1 μM, Batch 2", "value": 0.9011}, {"measurement": "b-catenin/ Histone 3 normalized", "setting": "0.1 μM, Batch 2", "value": 1.011}, {"measurement": "b-catenin/ tubulin normalized", "setting": "0.1 μM, Batch 2", "value": 0.7986}, {"measurement": "p- Smad2/3/GAPDH normalized", "setting": "0.1 μM, Batch 2", "value": 0.1997}, {"measurement": "E-Cadherin/GAPDH normalized", "setting": "0.1 μM, Batch 3", "value": 1.033}, {"measurement": "N-Cadherin/GAPDH normalized", "setting": "0.1 μM, Batch 3", "value": 0.3543}, {"measurement": "Smad2/3/GAPDH normalized", "setting": "0.1 μM, Batch 3", "value": 0.9832}, {"measurement": "b-catenin/ HDAC2 normalized", "setting": "0.1 μM, Batch 3", "value": 0.6944}, {"measurement": "b-catenin/ Histone 3 normalized", "setting": "0.1 μM, Batch 3", "value": 1.35}, {"measurement": "b-catenin/ tubulin normalized", "setting": "0.1 μM, Batch 3", "value": 1.101}, {"measurement": "p- Smad2/3/GAPDH normalized", "setting": "0.1 μM, Batch 3", "value": 0.212}, {"measurement": "b-catenin/ HDAC2 normalized", "setting": "0.1 μM, Batch 4", "value": 1.905}, {"measurement": "b-catenin/ Histone 3 normalized", "setting": "0.1 μM, Batch 4", "value": 0.9078}, {"measurement": "b-catenin/ tubulin normalized", "setting": "0.1 μM, Batch 4", "value": 1.377}, {"measurement": "P65/GAPDH normalized", "setting": "0.1 μM, TGF-β group, Batch 1", "value": 0.4666}, {"measurement": "p-P65/GAPDH normalized", "setting": "0.1 μM, TGF-β group, Batch 1", "value": 0.1387}, {"measurement": "P65/GAPDH normalized", "setting": "0.1 μM, TGF-β group, Batch 2", "value": 0.8513}, {"measurement": "p-P65/GAPDH normalized", "setting": "0.1 μM, TGF-β group, Batch 2", "value": 0.05722}, {"measurement": "P65/GAPDH normalized", "setting": "0.1 μM, TGF-β group, Batch 3", "value": 0.4658}, {"measurement": "p-P65/GAPDH normalized", "setting": "0.1 μM, TGF-β group, Batch 3", "value": 0.04967}, {"measurement": "P65/GAPDH normalized", "setting": "[1]", "value": 0.668}, {"measurement": "p-P65/GAPDH normalized", "setting": "[1]", "value": 0.6884}, {"measurement": "P65/GAPDH normalized", "setting": "[2]", "value": 0.75}, {"measurement": "p-P65/GAPDH normalized", "setting": "[2]", "value": 0.7416}, {"measurement": "P65/GAPDH normalized", "setting": "[3]", "value": 0.4563}, {"measurement": "p-P65/GAPDH normalized", "setting": "[3]", "value": 0.5057}, {"measurement": "E-Cadherin/GAPDH normalized", "setting": "0.3 μM, Batch 1", "value": 1.52}, {"measurement": "N-Cadherin/GAPDH normalized", "setting": "0.3 μM, Batch 1", "value": 0.1615}, {"measurement": "Smad2/3/GAPDH normalized", "setting": "0.3 μM, Batch 1", "value": 1.047}, {"measurement": "p- Smad2/3/GAPDH normalized", "setting": "0.3 μM, Batch 1", "value": 0.03}, {"measurement": "E-Cadherin/GAPDH normalized", "setting": "0.3 μM, Batch 2", "value": 1.01}, {"measurement": "N-Cadherin/GAPDH normalized", "setting": "0.3 μM, Batch 2", "value": 0.2158}, {"measurement": "Smad2/3/GAPDH normalized", "setting": "0.3 μM, Batch 2", "value": 1.249}, {"measurement": "b-catenin/ HDAC2 normalized", "setting": "0.3 μM, Batch 2", "value": 0.8061}, {"measurement": "b-catenin/ Histone 3 normalized", "setting": "0.3 μM, Batch 2", "value": 0.5919}, {"measurement": "b-catenin/ tubulin normalized", "setting": "0.3 μM, Batch 2", "value": 0.4991}, {"measurement": "p- Smad2/3/GAPDH normalized", "setting": "0.3 μM, Batch 2", "value": 0.1456}, {"measurement": "E-Cadherin/GAPDH normalized", "setting": "0.3 μM, Batch 3", "value": 0.9712}, {"measurement": "N-Cadherin/GAPDH normalized", "setting": "0.3 μM, Batch 3", "value": 0.1387}, {"measurement": "Smad2/3/GAPDH normalized", "setting": "0.3 μM, Batch 3", "value": 1.033}, {"measurement": "b-catenin/ HDAC2 normalized", "setting": "0.3 μM, Batch 3", "value": 0.9297}, {"measurement": "b-catenin/ Histone 3 normalized", "setting": "0.3 μM, Batch 3", "value": 0.5389}, {"measurement": "b-catenin/ tubulin normalized", "setting": "0.3 μM, Batch 3", "value": 1.411}, {"measurement": "p- Smad2/3/GAPDH normalized", "setting": "0.3 μM, Batch 3", "value": 0.1442}, {"measurement": "b-catenin/ HDAC2 normalized", "setting": "0.3 μM, Batch 4", "value": 0.672}, {"measurement": "b-catenin/ Histone 3 normalized", "setting": "0.3 μM, Batch 4", "value": 0.7931}, {"measurement": "b-catenin/ tubulin normalized", "setting": "0.3 μM, Batch 4", "value": 1.498}, {"measurement": "P65/GAPDH normalized", "setting": "0.3 μM, TGF-β group, Batch 1", "value": 0.4013}, {"measurement": "p-P65/GAPDH normalized", "setting": "0.3 μM, TGF-β group, Batch 1", "value": 0.07454}, {"measurement": "P65/GAPDH normalized", "setting": "0.3 μM, TGF-β group, Batch 2", "value": 0.8627}, {"measurement": "p-P65/GAPDH normalized", "setting": "0.3 μM, TGF-β group, Batch 2", "value": 0.05473}, {"measurement": "P65/GAPDH normalized", "setting": "0.3 μM, TGF-β group, Batch 3", "value": 0.4505}, {"measurement": "p-P65/GAPDH normalized", "setting": "0.3 μM, TGF-β group, Batch 3", "value": 0.04515}, {"measurement": "P65/GAPDH normalized", "setting": "[4]", "value": 0.6352}, {"measurement": "p-P65/GAPDH normalized", "setting": "[4]", "value": 0.6859}, {"measurement": "P65/GAPDH normalized", "setting": "[5]", "value": 0.8628}, {"measurement": "p-P65/GAPDH normalized", "setting": "[5]", "value": 0.7296}, {"measurement": "P65/GAPDH normalized", "setting": "[6]", "value": 0.342}, {"measurement": "p-P65/GAPDH normalized", "setting": "[6]", "value": 0.3802}, {"measurement": "E-Cadherin/GAPDH normalized", "setting": "1 μM, Batch 1", "value": 1.5017}, {"measurement": "N-Cadherin/GAPDH normalized", "setting": "1 μM, Batch 1", "value": 0.1538}, {"measurement": "Smad2/3/GAPDH normalized", "setting": "1 μM, Batch 1", "value": 1.22}, {"measurement": "p- Smad2/3/GAPDH normalized", "setting": "1 μM, Batch 1", "value": 0.02816}, {"measurement": "E-Cadherin/GAPDH normalized", "setting": "1 μM, Batch 2", "value": 1.0948}, {"measurement": "N-Cadherin/GAPDH normalized", "setting": "1 μM, Batch 2", "value": 0.1737}, {"measurement": "Smad2/3/GAPDH normalized", "setting": "1 μM, Batch 2", "value": 1.233}, {"measurement": "b-catenin/ HDAC2 normalized", "setting": "1 μM, Batch 2", "value": 0.9055}, {"measurement": "b-catenin/ Histone 3 normalized", "setting": "1 μM, Batch 2", "value": 0.7183}, {"measurement": "b-catenin/ tubulin normalized", "setting": "1 μM, Batch 2", "value": 0.408}, {"measurement": "p- Smad2/3/GAPDH normalized", "setting": "1 μM, Batch 2", "value": 0.1116}, {"measurement": "E-Cadherin/GAPDH normalized", "setting": "1 μM, Batch 3", "value": 1.05}, {"measurement": "N-Cadherin/GAPDH normalized", "setting": "1 μM, Batch 3", "value": 0.09916}, {"measurement": "Smad2/3/GAPDH normalized", "setting": "1 μM, Batch 3", "value": 1.054}, {"measurement": "b-catenin/ HDAC2 normalized", "setting": "1 μM, Batch 3", "value": 0.9651}, {"measurement": "b-catenin/ Histone 3 normalized", "setting": "1 μM, Batch 3", "value": 0.7434}, {"measurement": "b-catenin/ tubulin normalized", "setting": "1 μM, Batch 3", "value": 0.8806}]}]}
